Experimental data: patent US9012420B2, “Aptamer for chymase, and use thereof” (Ribomic Inc., priority 2009, dated 2015)
Oligonucleotides are written 5' to 3', each unit as a sugar letter and its base; * is a phosphorothioate linkage, no mark a phosphodiester; rarer units and linkages stand in square brackets, end groups in braces. Plain capitals give the bases only. r = 2'-OH (RNA); f = 2'-fluoro

T1: native chymase (purified from human skin mast cell) (Homo sapiens, UniProt P23946)
T1 construct: the native is chymase purified from human skin mast cell; purchased Calbiochem; host or cells: human skin mast cell
T1 sequence (P23946 22-247): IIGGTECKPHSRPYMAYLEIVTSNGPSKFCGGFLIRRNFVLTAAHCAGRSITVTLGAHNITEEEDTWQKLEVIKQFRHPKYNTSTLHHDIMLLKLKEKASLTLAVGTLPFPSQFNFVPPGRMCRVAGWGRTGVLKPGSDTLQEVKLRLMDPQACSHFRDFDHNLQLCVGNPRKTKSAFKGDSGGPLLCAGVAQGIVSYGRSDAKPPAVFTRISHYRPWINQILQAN


Target: T1, native chymase (purified from human skin mast cell)
Test: Chymase inhibitory activity using angiotensin I as substrate, native chymase
Assay type: biochemical
Settings: final 50 μM, chymase 0.2-0.5 nM, 37° C. 90 min, one measurement
Procedure: A second method of evaluation employs a native substrate. A useful native substrate for chymase is angiotensin I. Here, His-Leu, a peptide fragment released upon degradation of angiotensin I, is fluorescently derivatized, and the fluorescence intensity therefrom is quantified.
In the assay, an enzyme reaction is carried out in 50 μL of solution C. First, 0.3-0.75 ng of chymase (recombinant, manufactured by SIGMA; or native, manufactured by Calbiochem) is diluted in solution C to obtain 5 μL chymase solution. Each nucleic acid is prepared in solution C to obtain 25 μL solutions. 5 μL of each chymase dilution and 25 μL of each nucleic acid solution are mixed, and then the mixture is incubated at 37° C. for 5 minutes. […] The angiotensin I solution is added to the mixture of chymase and nucleic acid, and the enzyme reaction is initiated. After the reaction was allowed to proceed at 37° C. for 90 minutes, 25 μL of ice-cooled 30% trichloroacetic acid solution is added to terminate the reaction. The entire mixture is centrifuged at 4° C., 14000 rpm for 10 minutes, and 30 μL of the resulting supernatant is used for the subsequent reaction for fluorescent derivatization.
After 30 μL of the supernatant is added to a 96-well plate (Black, manufactured by Costar), 15 μL of 2% o-phthalaldehyde (manufactured by SIGMA) solution in methanol and 170 μL of 0.3M NaOH solution are mixed in each well, and the plate is allowed to stand at room temperature for 10 minutes. Subsequently, 25 μL of 3M HCl solution is added to terminate the reaction. The plate is set to the microplate reader SpectraMax190 (manufactured by Molecular Devices Corporation), and the fluorescence intensity is determined at an excitation wavelength of 355 nm and a fluorescence wavelength of 460 nm.
For control, samples are treated and analyzed in the same manner in two cases: use of SEQ ID NO: 58 (negative control) and use of chymostatin, a known chymotrypsin-like serine protease inhibitor (positive control). In both cases, fluorescence intensity obtained at 0 minute reaction time serves as a blank determination. Taking the fluorescence intensity detected with the addition of an equal volume of solution C, in place of each nucleic acid, in the chymase enzyme reaction as 100%, the inhibitory rate for each test substance is calculated, and the inhibitor concentration required to cause a 50% inhibition of the enzyme activity (IC50) is determined.
For further assessment of the inhibitory activity of the nucleic acid of the present invention, the enzyme activity of chymase was measured using angiotensin I, which is a native substrate for chymase, according to the following method. Angiotensin I is converted by chymase to angiotensin II, during which a peptide fragment His-Leu is released. Since the peptide His-Leu is fluorescently derivatized by o-phthalaldehyde, its fluorescence intensity can be quantitatively measured.
The total volume of solution for an enzyme reaction in the assay was set to 50 μL, and the reaction was performed in solution C buffer. First, 0.3-0.75 ng of chymase (recombinant, (manufactured by SIGMA) or native (manufactured by Calbiochem)) was diluted with solution C to give 5 μL thereof. Here, the recombinant is chymase expressed by yeast, and the native is chymase purified from human skin mast cell. The nucleic acid was serially diluted with solution C at a concentration of 0.0027-2 μM to give 25 μL thereof. The chymase solution (5 μL) and the nucleic acid solution (25 μL) were mixed, and the mixture was incubated at 37° C. for 5 min. On the other hand, […] angiotensin I (manufactured by PEPTIDE INSTITUTE, INC.) was prepared in solution C to give […] thereof, which was incubated at 37° C. for 5 min. The angiotensin I solution was added to a mixture of chymase and nucleic acid to start an enzyme reaction. The final chymase concentration of the reaction solution was 0.2-0.5 nM, and the final substrate concentration was 50 μM. […]

Row | Molecule | IC50 [nM]
1 | GGGU(F)U(F)GAAGAU(F)AU(F)U(F)AAAGAAC(F)C(F)C(F) (GGGUUGAAGAUAUUAAAGAACCC; 2'-fluoro at CU, RNA at AG, backbone not given here) [SEQ ID NO: 58] | > 1000
2 | 56 (GGGUUAGAUAGAGUUAAAAACCC; 2'-fluoro at CU, RNA at AG, backbone not given here) [compound 56] | 508
3 | 65 (rGrGfCrArGrAfUrArGrArGfUfUrArArArGfCfC) [compound 65] | 878
4 | 53 (GGGUAACUAUGGUUAGAUAGAGUUAAAAACCAUAGAAGACCC; 2'-fluoro at CU, RNA at AG, backbone not given here) [compound 53] | 764
5 | 72 (GGGTTAGAUAGAGTUAAAAACCC; chemistry not given here) [compound 72] | 120
6 | CC(C)C[C@H](NC(=O)[C@@H](NC(=O)N[C@@H](Cc1ccccc1)C(=O)O)[C@@H]1CCN=C(N)N1)C(=O)N[C@H](C=O)Cc1ccccc1 [chymostatin, reference compound] | 350 to 500
7 | 54 (UAACUAUGGUUAGAUAGAGUUAAAAACCAUAGAAGA; 2'-fluoro at CU, RNA at AG, backbone not given here) [compound 54] | 614
8 | 71 (GGGUUAGAUAGAGTUAAAAACCC; chemistry not given here) [compound 71] | 341
9 | 70 (GGGTTAGAUAGAGUUAAAAACCC; chemistry not given here) [compound 70] | 478
10 | 55 (CUAUGGUUAGAUAGAGUUAAAAACCAUAG; 2'-fluoro at CU, RNA at AG, backbone not given here) [compound 55] | 606
11 | 13 (nucleic acid, aptamer) rGrGrGrAfCrGrGfUrArGrGrArAfUfUfCfCrGfCrArAfCfCrAfUfCfCfCrGfUrArAfCfUrAfUrGrGfUfUrArGrAfUrArGrArGfUfUrArArArArAfCfCrAfUrArGrArArGrArGfCrGrGfCfCrGfC | 74
12 | 14 (nucleic acid, aptamer) rGrGrGrAfCrGrGfUrArGrGrArAfUfUfCfUfCrGfUfUfCfCfUrGrAfCrArGfCrAfUfUfUrGrArGrAfUrArGrAfUfUfUrArArAfCrArArAfCrGfCrAfCrAfUrArGrArArGrArGfCrGrGfCfCrGfC | 63
13 | 4 (nucleic acid, aptamer) rGrGrGrAfCrGrGfUrArGrGrArAfUfUfCrGfUfCfCrAfUfUfCfUrAfCrArGrAfUrArGrArGrAfUrArArArGfUrArGrArAfUfUfUrArAfCrArArArAfCrAfUrArGrArArGrArGfCrGrGfCfCrGfC | 31
